In brackets after ≈: the same amount, converted by molar mass. Where two headings read alike, the source gives them in different places.
Legend:
[1] = tested on: Macrophage cells (J774); assay: In vitro drug toxicity assay, macrophage cells; type: cell-based; settings: Mus musculus
[2] = tested on: P. falciparum chloroquine-sensitive D6-strain; assay: In vitro drug susceptibility assay ([3H]-hypoxanthine incorporation), D6 strain; type: cell-based; settings: Plasmodium falciparum
Procedure: (§1) Potential resistance to halofuginone derivatives of P. falciparum isolates were tested. Isolates of P. falciparum stored in liquid nitrogen are thawed and cultivated in RPMI 1640 media with 6% human erythrocytes supplemented with 10% of human serum. The parasite cultures are maintained in an atmosphere of 5% CO2, 5% O2 and 90% N2 at 37° C. for the assay. The semi-automated micro-dilution technique of Desjardins is used to assess the sensitivity of the parasites to febrifugine and halofuginone derivatives. The incorporation of [3H]-hypoxanthine into the parasites is measured as a function of compound concentration to determine EC50 values.

[3] = tested on: Plasmodium lophurae; settings: duck models, purified febrifugine; cited from earlier work
[4] = tested on: P. falciparum chloroquine-resistant W2-strain; assay: In vitro drug susceptibility assay ([3H]-hypoxanthine incorporation), W2 strain; type: cell-based; settings: Plasmodium falciparum
Procedure: as §1

[5] = tested on: malarial parasites; assay: In vitro antimalarial activity, parasites in culture (strain not stated); type: cell-based
Procedure: as §1

[6] = tested on: Neuronal cells (NG108); assay: In vitro drug toxicity assay, neuronal cells; type: cell-based; settings: NG-108
[7] = tested on: Plasmodium berghei; assay: Modified Thompson test in P. berghei-infected mice; type: in vivo; settings: for parasitemia of the infected mice: 10 mg/kg once/day for three days
Procedure: An active animal use protocol mouse models are used to test the above compounds to determine antimalarial activity by using modified Thompson Test. In this test, IRC mice are inoculated intraperitoneally with P. berghei-infected erythrocytes from donor mice that are anesthetized and exsanguinated via cardiac puncture to collect infected blood. The pooled blood is then diluted with normal mouse serum to a concentration of 1×10^6 P. berghei erythrocytes per inoculum (0.1 ml). The groups of testing and control mice are inoculated with the infected blood on day 0 and then treated with various dosages of halofuginone or the derivatives in aqueous-based vehicles on day 3 through the day required. The drug is administered orally (PO), subcutaneously (SC), intramuscularly (IM), and/or intraperitoneally (IP) up to three times a day, based on the requirements. Blood films and body weights are taken on the third and sixth days post-infection, then at weekly intervals through day 60. Films are Giemsa-stained, examined using light microscopy for the determination of parasitemia. All mice with negative smears at 60 days are considered cured. The data from the in vivo testing verifies the antimalarial efficacy of febrifugine, halofuginone and the halofuginone derivatives in mice and provides new properties of halofuginone and halofuginone derivatives against malarial parasites in vivo.
The modified Thompson test was conducted in eleven groups of mice with eight mice per group. The tested mice were inoculated with P. Berghei on day zero and treated with febrifugines on days three with one oral or subcutaneous treatment per day for three days. […] The parasitemia of the infected mice was reduced to less than 3% with oral administration of 10 mg/kg febrifugines one/day for three days, while mice with the subcutaneous treatment had 30% of parasitemia at the same does as shown in FIGS. 3(a) through 3(d).
Eighty-eight ICR mice were inoculated with P. berghei, and separated into nine groups. Eight of the infected groups were treated with […] different doses of halofuginone twice a day for eight days. One group was treated with physiological saline as control. […] Two mice were cured at the doses of 0.25 and 0.5 mg/kg and survived 60 days after the treatment. […] The parasites were all cleared at the does of 1 mg/kg on day six.

[8] = molecular target: T1, PfMRK (Plasmodium falciparum, UniProt P90584); assay: Kinase assay, recombinant plasmodial cyclin-dependent kinase; type: biochemical
T1 sequence (P90584 1-324): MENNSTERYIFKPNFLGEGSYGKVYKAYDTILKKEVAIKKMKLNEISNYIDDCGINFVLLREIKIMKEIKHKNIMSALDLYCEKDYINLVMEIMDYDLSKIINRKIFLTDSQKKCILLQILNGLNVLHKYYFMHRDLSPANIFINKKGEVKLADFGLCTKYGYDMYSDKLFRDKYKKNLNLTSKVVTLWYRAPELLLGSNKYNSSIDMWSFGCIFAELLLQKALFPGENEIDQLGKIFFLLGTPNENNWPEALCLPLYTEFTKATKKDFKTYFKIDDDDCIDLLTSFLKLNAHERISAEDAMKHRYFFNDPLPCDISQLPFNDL
Description: Halofuginone is a known to be a specific collagen gene transcription inhibitor. However, inhibition to other target enzymes by febrifugine, halofuginone and halofuginone derivatives in malarial parasites remain unknown. Quinazoline analogues (the family to which these compounds belong) are known to target dihydrofolate reductase, mammalian EGFR kinase, the stress-activated protein kinase and cyclin dependent kinase. A series of enzymatic assays are used to detect whether the derivatives have inhibition against these enzymes. DHFR assay is conducted using a well-characterized spectrophotometric method. Kinase assays are conducted using radioisotope-labeling technique. The responses of the recombinant kinases to the derivatives are measured in a scintillation b-counter and illustrated using SDS-page gel and PhosphoImager. These tests provide information on the compounds' abilities to interfere with the functions of these enzymes and alter the parasite physiological pathways on a molecular basis.

[9] = Toxic effects in mice (observation and necropsy analysis); type: in vivo; settings: for diarrhea / gastrointestinal toxic effects: mice
[10] = Table 4, D6, read-out: IC50 P. falciparum (D6)
[11] = Table 4, W2, read-out: IC50 P. falciparum (W2)
[12] = recombinant kinase, dash = no inhibition, read-out: PFMRK (IC50:μM)
[13] = Table 1, D6 strain, read-out: IC50 against P. falciparum D6 strain
[14] = Table 1, W2 strain, read-out: IC50 against P. falciparum W2 strain

| Compound | IC50 [2, 10] [µg/mL] | IC50 [4, 11] [µg/mL] | IC50 [2, 13] [µg/mL] | IC50 [4, 14] [µg/mL] | IC50 ([1]; Table 4, J774) [µg/mL] | IC50 ([6]; Table 4, NG108) [µg/mL] | IC50 ([1]; Table 2, J774) [µg/mL] | IC50 ([6]; Table 2, NG108) [µg/mL] | other results |
| --- | --- | --- | --- | --- | --- | --- | --- | --- | --- |
| O=C(C[C@H]1NCCCC1O)Cn1cnc2ccccc2c1=O (stereo partly drawn) [Febrifugine, (2′S,3′R)-3-[3-(3-hydroxy-2-piperidyl)acetonyl]-4(3H)quinazolinone] |  |  |  |  | 0.081 (≈ 0.269 µM) | 0.0635 (≈ 0.211 µM) |  |  | IC50 ([2]; D6, read-out: IC50 P. falciparum (D6)): 0.00034 µg/mL (≈ 0.00113 µM); antimalarial activity relative to quinine [3]: 100 times as active as quinine; IC50 ([4]; W2, read-out: IC50 P. falciparum (W2)): 0.00053 µg/mL (≈ 0.00176 µM); in vitro antimalarial activity relative to chloroquine and artemisinin [5]: ten times stronger than chloroquine and artemisinin |
| O=C(CC1NCCCC1O)Cn1cnc2cc(Br)c(Cl)cc2c1=O (stereo not shown) [Halofuginone] | 0.00012 (≈ 0.000289 µM) | 0.00015 (≈ 0.000362 µM) |  |  | 0.132 (≈ 0.319 µM) | 0.177 (≈ 0.427 µM) |  |  | rank of in vitro potency against malarial parasites among febrifugine derivatives [5]: the most potent analog; lethal toxicity in infected mice ([7]; dose higher than 1 mg/kg twice a day): killed the tested mice before the parasites; mouse survival time ([7]; doses of 0.125, 0.25 and 0.5 mg/kg twice a day for eight days, ICR mice): extended the mouse survival time; parasitemia of the infected mice on day six ([7]; doses of 0.25 and 0.5 mg/kg twice a day): below 0.5%; mice cured (survived 60 days after the treatment) ([7]; doses of 0.25 and 0.5 mg/kg twice a day for eight days): Two |
| COC1CCCN[C@@H]1CC(=O)Cn1cnc2cc3c(cc2c1=O)OCO3 (stereo partly shown) [WR090212] | 0.0189 (≈ 0.0527 µM) | 0.0234 (≈ 0.0651 µM) | 0.0181 (≈ 0.0504 µM) | 0.0256 (≈ 0.0713 µM) | 2.97 (≈ 8.27 µM) | 24.8 (≈ 69.1 µM) | 3.54 (≈ 9.85 µM) | 26 (≈ 72.3 µM) |  |
| O=C(C[C@H]1NCCCC1O)Cn1cnc2cc3c(cc2c1=O)OCO3 (stereo partly shown) [WR092103] | 0.00238 (≈ 0.00689 µM) | 0.00293 (≈ 0.00848 µM) |  |  | 3.61 (≈ 10.4 µM) | 6.86 (≈ 19.9 µM) |  |  |  |
| COC1CCCN[C@@H]1CC(=O)Cn1cnc2ccc3c(c2c1=O)OCO3 (stereo partly shown) [WR140085] | 0.0129 (≈ 0.036 µM) | 0.0151 (≈ 0.0419 µM) | 0.0105 (≈ 0.0291 µM) | 0.0141 (≈ 0.0391 µM) | 0.425 (≈ 1.18 µM) | 15.5 (≈ 43.1 µM) | 3.29 (≈ 9.14 µM) | 10.8 (≈ 30.1 µM) |  |
| CCOC1CCCN[C@@H]1CC(=O)Cn1cnc2cc(Br)c(Cl)cc2c1=O (stereo partly shown) [WR221232] | 0.00945 (≈ 0.0213 µM) | 0.0115 (≈ 0.0261 µM) | 0.0111 (≈ 0.0251 µM) | 0.0172 (≈ 0.0388 µM) | 0.613 (≈ 1.38 µM) | 8 (≈ 18.1 µM) | 0.287 (≈ 0.647 µM) | 5.99 (≈ 13.5 µM) | IC50 [8]: ~113 µM |
| O=C(C[C@H]1NCCCC1O)Cn1cnc2c(Cl)c(Cl)c(Cl)cc2c1=O (stereo partly shown) [WR222048] | 0.00082 (≈ 0.00203 µM) | 0.00098 (≈ 0.00242 µM) | 0.000962 (≈ 0.00238 µM) | 0.00129 (≈ 0.00319 µM) | 0.499 (≈ 1.23 µM) | 0.879 (≈ 2.17 µM) | 0.11 (≈ 0.272 µM) | 1.1 (≈ 2.71 µM) |  |
| (2′S,3′R)-3-[3-(3-hydroxy-2-piperidyl)acetonyl]-4(3H)quinazolinone [Febrifugine] |  |  |  |  |  |  |  |  | toxic effects (nausea and vomiting) in mice ([9]; antimalarial dosages): do not appear to have such toxic effects; diarrhea ([9]; effective treatment doses): did not induce diarrhea; gastrointestinal toxic effects ([9]; oral treatment, toxic doses): severe gastrointestinal lesions and hemorrhage; gastrointestinal toxic effects ([9]; subcutaneous treatment, toxic doses): did not induce GI tract injury; vomiting ([9]; tested mice): No vomiting has been observed; diarrhea ([9]; toxic doses): caused diarrhea; necropsy findings ([9]; toxic doses, mouse killed by drug): pale liver and intestine lesions and hemorrhage; efficacy of oral versus subcutaneous treatment ([7]; one treatment per day for three days, mice): more efficacious; parasitemia of the infected mice ([7]; oral administration, mice): less than 3%; parasitemia of the infected mice ([7]; subcutaneous treatment, mice): 30% |

Now from value to compound, other results behind:

| IC50 [2, 10] [µg/mL] | IC50 [4, 11] [µg/mL] | IC50 [2, 13] [µg/mL] | IC50 [4, 14] [µg/mL] | Compound | IC50 ([1]; Table 4, J774) [µg/mL] | IC50 ([6]; Table 4, NG108) [µg/mL] | IC50 ([1]; Table 2, J774) [µg/mL] | IC50 ([6]; Table 2, NG108) [µg/mL] | other results |
| --- | --- | --- | --- | --- | --- | --- | --- | --- | --- |
| 0.0174 (≈ 0.0611 µM) | 0.0237 (≈ 0.083 µM) | 0.0171 (≈ 0.06 µM) | 0.026 (≈ 0.0912 µM) | O=C(C[C@@H]1CCCCN1)Cn1cnc2ccccc2c1=O [WR059421] | 0.492 (≈ 1.72 µM) | 8.93 (≈ 31.3 µM) | 0.236 (≈ 0.827 µM) | 5.38 (≈ 18.9 µM) | IC50 [8, 12]: ~27 µM |
| 0.291 (≈ 0.748 µM) | 0.284 (≈ 0.728 µM) |  |  | O=C(C[C@H]1CCCCN1C(=O)c1ccccc1)Cn1cnc2ccccc2c1=O [WR059424] | 3.01 (≈ 7.73 µM) | 36.8 (≈ 94.5 µM) |  |  |  |
| 0.193 (≈ 0.466 µM) | 0.245 (≈ 0.593 µM) | 0.203 (≈ 0.491 µM) | 0.288 (≈ 0.696 µM) | C=CCOC(=O)N1CCCC(OCC)[C@H]1CC(=O)Cn1cnc2ccccc2c1=O (stereo partly shown) [WR088442] | 7.09 (≈ 17.1 µM) | 35.1 (≈ 84.8 µM) | 9.1 (≈ 22 µM) | 21.5 (≈ 52 µM) | IC50 [8, 12]: ~25 µM |
| 0.0897 (≈ 0.202 µM) | 0.129 (≈ 0.292 µM) | 0.0897 (≈ 0.202 µM) | 0.129 (≈ 0.292 µM) | C=CCOC(=O)N1CCCC(OC)[C@H]1CC(=O)Cn1cnc2cc3c(cc2c1=O)OCO3 (stereo partly shown) [WR089904] | 1.08 (≈ 2.43 µM) | 53.3 (≈ 120 µM) | 29.2 (≈ 65.7 µM) | 63 (≈ 142 µM) |  |
| 0.00175 (≈ 0.00521 µM) | 0.00146 (≈ 0.00435 µM) | 0.00123 (≈ 0.00366 µM) | 0.00163 (≈ 0.00484 µM) | O=C(C[C@H]1NCCCC1O)Cn1cnc2cccc(Cl)c2c1=O (stereo partly shown) [WR139672] | 0.392 (≈ 1.17 µM) | 1.16 (≈ 3.45 µM) | 0.069 (≈ 0.205 µM) | 1.31 (≈ 3.91 µM) |  |

From patent publication US20040053950A1, “Antimalarial activities and therapeutic properties of febrifugine analogues” (priority 2002, published 2004)
